In assay [1] the test system is HESC cells. Nature of the assay: Binding of peptide-displaying T7 phages to cultured cells (plaque assay). Further details: species or system human. The note with it: peptide displayed on T7 phage, HESC cells in suspension, 4 °C, 1 h, washed, N = 3. The procedure:
(§1) Peptide-displaying T7 bacteriophages were prepared by cloning nucleotide sequences coding for different peptides into phage genomic DNA to be expressed on the phage surface as C-terminal fusions to capsid protein. The complementary oligonucleotides were annealed, and the cloning was performed according to the manufacturer’s protocol using the T7Select® 415-1 Cloning Kit (Millipore, 70015-3, Merck KGaA, Darmstadt, Germany). Peptide-displaying phage clones were thereafter amplified in complementing host bacterial cells BLT5403 and purified with polyethylene glycol according to an established protocol.
(§2) Prior to phage addition, 12Z and HESC cells were detached, washed with PBS, and resuspended in 0.5% BSA containing DMEM. Phages expressing a single peptide of interest (5 × 10^7 PFU/mL) were added to 5 × 10^7 cells, wherein insertless phage was used as a negative control. Incubation with phage clones was carried out on a slowly rocking platform at 4 °C for 1 h. Cells were washed four times with 0.5% BSA containing DMEM to eliminate unbound phages. Finally, the cells together with bound phages were resuspended in 1% NP40 containing LB solution, and plaque assay was performed as described earlier. Briefly, the amount of phage in cell lysates was determined by titering using Escherichia coli strain BLT5615 in LB medium containing 2 mM IPTG.
(§3) Figure 1 Binding of peptide-phages to cultured 12Z and HESC cells. Cells were incubated with the different peptide-displaying phages at 4 °C for 1 h, washed, and phage binding quantified by plaque assay. The phage binding is represented as a fold over insertless phage. N = 3, error bars = ±SEM. *** p < 0.001 (compared with insertless phage).

Assay [2] deals with 12Z cells. The assay is described as above. Further details: species or system human. Conditions: peptide displayed on T7 phage, 12Z cells in suspension, 4 °C, 1 h, washed, N = 3. The procedure:
as §1, §2, §3

This note sets out measurements from article PMC8708492, “Homing Peptide-Based Targeting of Tenascin-C and Fibronectin in Endometriosis” (Nanomaterials, 2021).

AGRGRLVR (displayed on T7 phage) [PL3]: the “phage binding, fold over insertless phage” value (“phage binding, fold” below) in assay [1] and in assay [2] was 4–6 fold throughout.

Take “C * RGDKGPDC * (disulfide) [iRGD, disulfide-cyclised peptide targeting angiogenic αv integrins and NRP-1]”: the “phage binding, fold” value is 9 fold in assay [1] and 3 fold in assay [2].

Consider PPRRGLIKLKTS [PL1], for which the “phage binding, fold” value in assay [1] and in assay [2] was 13–16 fold throughout.

As to RPARPAR, the “phage binding, fold” value in assay [1] was ~ 2 fold; in assay [2], “low/background binding”.

With RTRLHTR [EM2, receptor unknown], the entries for the “phage binding, fold” value in assay [1] and in assay [2] were ~ 2 fold and “low/background binding”, respectively.

For VRRADNRPG [EM1, receptor CNGB3], the “phage binding, fold” value in assay [2] is recorded as “low/background binding”.
